Measured values as given in patent US20250282830A1, “ANTI-VIRAL PEPTIDE COMPOSITIONS AND METHODS TO IMPROVE BIOLOGICAL ACTIVITY THEREOF” (priority 2021, published 2025).

Experiments:
DENV-3 = experiment: Plaque reduction neutralization assay, DENV-3; type: cell-based, Dengue virus serotype 3; settings: Vero cells; virus pre-incubated with peptide 1 h at 37° C.; read-out: DENV-3 PRNT50
Method: (§1) Vero cells were seeded at 1×10^5 cells per well and incubated overnight. Twofold serial dilutions of peptide were incubated with 200-300 p.f.u. of virus for 1 h at 37° C. Cells were infected with the virus-peptide mixture for 1 h at 37° C. The inoculum was removed and 0.8% (wt/vol) methylcellulose in medium supplemented with 1% FBS was added. After 3-5 days incubation, plates were fixed and analysed for plaques by immunostaining (DENV). For immunostaining, the cells were fixed, followed by incubation with 4G2, a mouse anti-DENV E protein monoclonal antibody (1:2,000 dilution), for 16-20 h. After addition of a secondary antibody, goat anti-mouse IgG (H+L)-HRP conjugate (1:2,000 dilution), the TrueBlue peroxidase substrate (KPL) was added and the optical density was measured at a wavelength of 450 nm. For crystal violet staining, cells were fixed with fixing solution (5% glutaric dialdehyde in Dulbecco's PBS) followed by staining with 0.1% crystal violet in fixing solution. The IC50 value was calculated by comparing the relative number of plaques in peptide-treated samples to virus-only samples using a four-parameter logistic curve fit.

DENV-2 = experiment: Plaque reduction neutralization assay, DENV-2; type: cell-based, Dengue virus serotype 2; settings: Vero cells; virus pre-incubated with peptide 1 h at 37° C.; read-out: DENV-2 PRNT50
Method: as §1

DENV-1 = experiment: Plaque reduction neutralization assay, DENV-1; type: cell-based, Dengue virus serotype 1; settings: Vero cells; virus pre-incubated with peptide 1 h at 37° C.; read-out: DENV-1 PRNT50
Method: as §1

[1] = Time-lapse fluorescence microscopy imaging of peptide-induced vesicle rupture; settings: small and large tethered vesicles
Method: Highly parallel measurements of peptide-induced liposome rupture were conducted by time-lapsed epifluorescence microscopy imaging. An Eclipse Ti-E inverted microscope (Nikon) with a high-pressure mercury lamp, a CFI Plan Apochromat TIRF×60 oil-immersion objective (NA 1.49; Nikon) and an Andor iXon3 897 EMCCD camera (Andor Technology), was utilized for measurements. The samples were illuminated with a mercury lamp (Intenslight C-HGFIE) using a TRITC filter set. Briefly, glass coverslips were assembled into a microfluidic flow cell, and coated with a thin layer of PLL-g-PEG(-biotin), followed by tethering of 0.025 μg ml^−1 liposomes via biotin-neutravidin coupling. Peptide was then added at a volumetric rate of 100 μl min^−1, and micrographs were recorded every 5-30 s depending on the particular experiment. The initial time was defined by when the peptide solution entered the channel inlet. Data processing and analysis were conducted using ImageJ (National Institutes of Health) and Python(x,y) software packages. The diameter of individual liposomes was estimated based on fluorescence intensity values. […]
Using time-lapse fluorescence microscopy imaging, we further investigated the interactions of different versions of Peptides 2 and 4 with tethered vesicles at the single-vesicle level and saw different degrees of vesicle rupture in terms of total extent and speed (FIG. 14).

DENV-4 = experiment: Plaque reduction neutralization assay, DENV-4; type: cell-based, Dengue virus serotype 4; settings: Vero cells; virus pre-incubated with peptide 1 h at 37° C.; read-out: DENV-4 PRNT50
Method: as §1

[2] = Pharmacokinetic characterization; type: in vivo, BALB/c mice; settings: mice
Method: Male BALB/c mice (InVivos) aged 8-9 weeks were used during the pharmacokinetic characterization experiments. In brief, mice were anaesthetized by isoflurane. AH-D peptide solution (25 mg kg^−1) was then administered by the intravenous (i.v.) route (tail vein). Blood samples were taken by cardiac puncture under isoflurane anaesthesia at regular time points after injection (eight time points per compound). The administered dose was maintained at 5 ml kg^−1. Selected organs were collected after euthanasia and were stored at −80° C. until bioanalysis. Blood samples were mixed with deionized water while tissue samples were homogenized in deionized water before extraction. The samples were then treated with phosphoric acid (5 μl), followed by acetonitrile (25 μl) that contained 15 ng ml^−1 imipramine internal standard, 5% ammonium hydroxide (25 μl), deionized water (100 μl) and 5% Tween-20 (20 μl), before vortexing. The processed samples were then added to pre-activated Strata-X Solid Phase Extraction cartridges (30 mg per 1 ml; Phenomenex), and washed with 500 μl of deionized water, followed by elution in 75/25 acetonitrile/methanol with 1% formic acid. […] The blood and tissue samples were then analysed using a validated bio-analytical, ultra-performance liquid chromatography tandem mass spectrometry method. […]

[3] = Blood-to-brain influx assessment (BBB transport); type: in vivo, ICR-CD-1 mice; settings: mice
Method: Female, Institute for Cancer Research, Caesarean Derived-1 (ICR-CD-1) mice (7 to 10 weeks old; Envigo) were used to assess the in vivo blood-brain barrier (BBB) transport properties of AH-D peptide. The BBB permeability of AH-D was evaluated according to multiple time regression (MTR) analysis. In brief, mice were anesthetized by injecting 40% urethane intraperitoneally. Approximately 200 μl of AH-D peptide solution (10 mg kg^−1) was injected into the jugular internalis vein, then blood samples were collected from the carotid artery at selected time points after injection (minimum five time points per compound). Immediately after blood collection, the mice were euthanized by decapitation. The collected blood samples were centrifuged at 10,000 g for 15 min at 21° C. and the brains were isolated. The brain and the serum of each mouse were then analysed using a validated bio-analytical, ultrahigh-performance liquid chromatography tandem mass spectrometry method. Modelling of the data was performed according to the linear Gjedde-Patlak equation, giving the influx rate constant Kin (unidirectional clearance) of AH-D peptide. The molar concentration in the brain was also calculated by converting the mass of peptide per mass of brain tissue into the mass of peptide per volume of brain tissue by assuming the brain density to be 1.04 g ml^−1. […]

For “SGSWLRDVWDWICTVLTDFKTWLQSKL [Peptide N2N]”, the IC50 (DENV-3) was 436 nM, the IC50 (DENV-2) was 290 nM and the IC50 (DENV-1) was 115 nM. The “Dependence of vesicle rupture on vesicle size (membrane-curvature sensing), single-vesicle analysis” value [1] was “have membrane-curvature sensing mechanisms” and the IC50 (DENV-4) was 171 nM.

In the case of `CC[C@@H](C)[C@@H](NC(=O)[C@@H](Cc1c[nH]c2ccccc12)NC(=O)[C@@H](CC(=O)O)NC(=O)[C@@H](Cc1c[nH]c2ccccc12)NC(=O)[C@H](NC(=O)[C@@H](CC(=O)O)NC(=O)[C@@H](CCCNC(=N)N)NC(=O)[C@@H](CC(C)C)NC(=O)[C@@H](Cc1c[nH]c2ccccc12)NC(=O)[C@@H](CO)NC(=O)CNC(=O)[C@H](N)CO)C(C)C)C(=O)N[C@H](CS)C(=O)N[C@@H](C(=O)N[C@@H](C(=O)N[C@H](CC(C)C)C(=O)N[C@@H](C(=O)N[C@H](CC(=O)O)C(=O)N[C@H](Cc1ccccc1)C(=O)N[C@H](CCCCN)C(=O)N[C@@H](C(=O)N[C@H](Cc1c[nH]c2ccccc12)C(=O)N[C@H](CC(C)C)C(=O)N[C@H](CCC(N)=O)C(=O)N[C@H](CO)C(=O)N[C@H](CCCCN)C(=O)N[C@H](CC(C)C)C(=O)O)[C@H](C)O)[C@H](C)O)C(C)C)[C@H](C)O` [AH-D peptide], the Bioavailability [2] is reported as “high bioavailability”, the Circulation half-time ([2]; 25 mg kg−1 i.v.) is reported as “relatively long circulation half-time” and the “Blood brain barrier (BBB) crossing” value [3] is reported as “able to cross the blood brain barrier”. For the same molecule, the “Blood brain barrier (BBB) crossing” value ([3]; listed as D-amino acid version of peptide 2) was “BBB-crossing activity to achieve therapeutic concentrations in the brain”.

Work on “SGSWLRDVWDWVCTILTDFKNWLTSKL [Peptide N3N]” yielded an IC50 (DENV-3) of 936 nM, an IC50 (DENV-2) of 389 nM and an IC50 (DENV-1) of 121 nM. It also gave an IC50 (DENV-4) of 139 nM.

“SGSWLRDVWDWICTVLTDFKTWLQSKL [Peptide N2O]” gave an IC50 (DENV-3) of 662 nM, an IC50 (DENV-2) of 384 nM and an IC50 (DENV-1) of 146 nM. For the same molecule, the “Dependence of vesicle rupture on vesicle size (membrane-curvature sensing), single-vesicle analysis” value [1] was “ruptured vesicles independently of vesicle size” and the IC50 (DENV-4) was 266 nM.

“SDDWLRTIWDWVCSVLADFKAWLSAKI [Peptide N7O]” gave an IC50 (DENV-3) of 2380 nM, an IC50 (DENV-2) of 1880 nM and an IC50 (DENV-1) of 723 nM. It also gave an IC50 (DENV-4) of 198 nM.

“AESWLWEVWDWVLHVLSDFKTCLKAKF [Peptide N100]” showed an IC50 (DENV-3) of 1110 nM, an IC50 (DENV-2) of 362 nM and an IC50 (DENV-1) of 194 nM. For the same molecule, the IC50 (DENV-4) was 1150 nM.

For “SGSWLRDIWDWICEVLSDFKTWLKAKL [Peptide N1N]”, the IC50 (DENV-3) was 3230 nM, the IC50 (DENV-2) was 402 nM and the IC50 (DENV-1) was 218 nM. For the same molecule, the IC50 (DENV-4) was 1100 nM.

For “SGSWLRDIWEWVCSILTDFKNWLSAKL [Peptide O4O]”, the IC50 (DENV-3) was 2190 nM, the IC50 (DENV-2) was 1210 nM and the IC50 (DENV-1) was 365 nM. The IC50 (DENV-4) was 1560 nM.

“SDDWLRTIWDWVCSVLADFKAWLSAKI [Peptide O7O]” gave an IC50 (DENV-3) of 213 nM, an IC50 (DENV-2) of 299 nM and an IC50 (DENV-1) of 36 nM. For the same molecule, the IC50 (DENV-4) was 433 nM.

With “GDDWLHDIWDWVCIVLSDFKTWLSAKI [Peptide O8O]” the IC50 (DENV-3) was 444 nM, the IC50 (DENV-2) was 188 nM and the IC50 (DENV-1) was 69.2 nM. For the same molecule, the IC50 (DENV-4) was 709 nM.
